# Measurements: ChEMBL document CHEMBL1201862, “PubChem BioAssay data set” (2004)
# The source made the active and inactive calls.
# Assays:
# [1] = molecular target: T1, Hexokinase HKDC1 (Homo sapiens, UniProt Q2TB90); assay: HKDC1 hexokinase activators, dose response, biochemical, W721R variant (AID 504730); assay type: functional
# T1 sequence (Q2TB90 whole entry): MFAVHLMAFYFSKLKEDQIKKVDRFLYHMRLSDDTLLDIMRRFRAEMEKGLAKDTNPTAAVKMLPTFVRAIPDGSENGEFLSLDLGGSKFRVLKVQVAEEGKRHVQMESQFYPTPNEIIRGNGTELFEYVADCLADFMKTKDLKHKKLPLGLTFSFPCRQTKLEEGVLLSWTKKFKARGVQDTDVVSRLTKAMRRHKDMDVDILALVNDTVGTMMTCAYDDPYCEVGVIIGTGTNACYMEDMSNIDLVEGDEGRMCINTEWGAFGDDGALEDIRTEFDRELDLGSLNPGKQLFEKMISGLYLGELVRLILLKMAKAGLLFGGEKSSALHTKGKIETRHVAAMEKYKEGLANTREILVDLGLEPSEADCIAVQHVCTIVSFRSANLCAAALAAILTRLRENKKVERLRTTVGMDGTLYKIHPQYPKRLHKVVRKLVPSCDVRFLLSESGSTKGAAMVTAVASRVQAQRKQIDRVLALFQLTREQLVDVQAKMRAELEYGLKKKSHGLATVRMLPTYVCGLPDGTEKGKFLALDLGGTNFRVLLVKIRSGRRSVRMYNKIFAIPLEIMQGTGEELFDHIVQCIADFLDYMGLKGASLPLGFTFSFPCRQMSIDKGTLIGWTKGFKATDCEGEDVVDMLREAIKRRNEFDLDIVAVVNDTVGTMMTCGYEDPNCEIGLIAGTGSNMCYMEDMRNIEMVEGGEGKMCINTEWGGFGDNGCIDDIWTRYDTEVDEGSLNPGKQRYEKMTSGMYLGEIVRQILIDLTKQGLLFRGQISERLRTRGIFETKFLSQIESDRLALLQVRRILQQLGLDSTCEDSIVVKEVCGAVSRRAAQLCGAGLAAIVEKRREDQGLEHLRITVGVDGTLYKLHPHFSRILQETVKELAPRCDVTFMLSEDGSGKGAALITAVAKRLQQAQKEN
# [2] = molecular target: T2, Hexokinase-1 (Homo sapiens, UniProt P19367); assay: hexokinase 1 activators, dose response, selectivity assay for HKDC1 activator project, biochemical (AID 504762); assay type: functional
# T2 sequence (P19367 whole entry): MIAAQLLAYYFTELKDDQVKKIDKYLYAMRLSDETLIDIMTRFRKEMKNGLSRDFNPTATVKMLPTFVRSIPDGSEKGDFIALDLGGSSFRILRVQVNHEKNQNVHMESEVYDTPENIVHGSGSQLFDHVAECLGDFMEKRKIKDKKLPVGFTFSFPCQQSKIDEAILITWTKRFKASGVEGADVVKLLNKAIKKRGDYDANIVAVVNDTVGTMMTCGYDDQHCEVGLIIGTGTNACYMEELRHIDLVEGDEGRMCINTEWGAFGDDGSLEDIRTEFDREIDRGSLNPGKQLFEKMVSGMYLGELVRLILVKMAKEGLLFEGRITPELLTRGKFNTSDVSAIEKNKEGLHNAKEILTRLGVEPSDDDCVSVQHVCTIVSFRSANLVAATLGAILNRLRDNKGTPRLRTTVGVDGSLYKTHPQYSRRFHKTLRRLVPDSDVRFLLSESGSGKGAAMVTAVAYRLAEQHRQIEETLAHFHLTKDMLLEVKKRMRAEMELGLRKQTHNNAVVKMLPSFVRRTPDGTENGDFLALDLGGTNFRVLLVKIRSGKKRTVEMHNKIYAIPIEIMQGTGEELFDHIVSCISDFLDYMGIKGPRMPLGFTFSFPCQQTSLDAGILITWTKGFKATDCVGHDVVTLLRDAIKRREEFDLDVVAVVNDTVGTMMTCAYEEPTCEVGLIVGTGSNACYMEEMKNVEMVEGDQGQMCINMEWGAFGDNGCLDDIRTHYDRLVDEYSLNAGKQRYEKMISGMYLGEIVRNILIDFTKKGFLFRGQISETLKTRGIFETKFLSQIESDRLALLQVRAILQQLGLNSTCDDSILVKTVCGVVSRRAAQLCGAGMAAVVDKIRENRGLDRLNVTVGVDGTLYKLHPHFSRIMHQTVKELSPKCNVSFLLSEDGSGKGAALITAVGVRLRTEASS
# [3] = molecular target: T3, Lysine-specific demethylase 4C (Homo sapiens, UniProt Q9H3R0); assay: GASC-1 (JMJD2C) histone demethylase inhibitors, dose response, biochemical, DELFIA europium, cherry-picked samples (AID 488835); assay type: functional
# T3 sequence (Q9H3R0 whole entry): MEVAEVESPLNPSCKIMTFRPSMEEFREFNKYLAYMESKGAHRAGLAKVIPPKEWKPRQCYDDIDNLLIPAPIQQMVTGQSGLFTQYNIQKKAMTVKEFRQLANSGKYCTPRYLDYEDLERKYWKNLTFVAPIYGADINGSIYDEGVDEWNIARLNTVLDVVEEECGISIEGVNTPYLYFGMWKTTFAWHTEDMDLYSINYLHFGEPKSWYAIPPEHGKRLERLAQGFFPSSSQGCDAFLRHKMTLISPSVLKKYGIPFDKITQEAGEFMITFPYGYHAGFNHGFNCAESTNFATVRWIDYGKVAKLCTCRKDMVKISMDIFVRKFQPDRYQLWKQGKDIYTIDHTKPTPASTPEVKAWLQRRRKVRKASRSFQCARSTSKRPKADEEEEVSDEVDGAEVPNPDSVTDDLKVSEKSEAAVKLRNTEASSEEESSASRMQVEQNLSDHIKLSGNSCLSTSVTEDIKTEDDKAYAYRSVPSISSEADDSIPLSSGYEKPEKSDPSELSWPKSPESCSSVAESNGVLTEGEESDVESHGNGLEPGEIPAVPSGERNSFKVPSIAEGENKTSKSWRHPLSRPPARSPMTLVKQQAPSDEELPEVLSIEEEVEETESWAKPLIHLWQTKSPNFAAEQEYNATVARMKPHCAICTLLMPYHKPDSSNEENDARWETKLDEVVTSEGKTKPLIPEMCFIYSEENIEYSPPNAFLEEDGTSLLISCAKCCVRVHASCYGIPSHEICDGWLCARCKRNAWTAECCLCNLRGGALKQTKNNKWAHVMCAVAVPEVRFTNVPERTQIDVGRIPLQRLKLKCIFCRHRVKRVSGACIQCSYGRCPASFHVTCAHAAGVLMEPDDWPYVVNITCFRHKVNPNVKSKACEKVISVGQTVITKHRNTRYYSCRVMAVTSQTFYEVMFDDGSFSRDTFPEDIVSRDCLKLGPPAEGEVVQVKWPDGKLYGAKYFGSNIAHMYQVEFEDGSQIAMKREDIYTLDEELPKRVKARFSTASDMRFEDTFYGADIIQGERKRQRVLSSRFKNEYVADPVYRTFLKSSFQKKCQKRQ
# [4] = system: INS1; assay: beta cell apoptosis inhibitors, cytokine rescue, dose response, luminescence, retest (AID 449756); assay type: functional, cell-based; conditions: Rattus norvegicus;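 further: cell death triggered by IL-1 beta plus TNF-alpha plus IFN-gamma mixture; protective hits raise ATP signal compared with cytokine alone wells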
# [5] = Shn3 3'UTR reporter inhibitors, dose response, cell-based, Clone20 osteoblasts, firefly luciferase, cherry-picked (AID 624132); assay type: functional;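 further: firefly luciferase luminescence from reporter carrying the Shn3 3'UTR in osteoblasts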
# [6] = HepG2 cell cytotoxicity, dose response, cytotoxicity control for Shn3 inhibitor project, CellTiter-Glo, cherry-picked (AID 624134); assay type: functional, cell-based
# [7] = control 3'UTR Renilla luciferase suppression, dose response, counter-screen for Shn3 inhibitor project, cell-based, Clone20-Shn3RL, cherry-picked (AID 624133); assay type: functional
# [8] = growth suppression of PTEN-null colon cells, dose response, cell-based, HCT116 PTEN knockout (AID 1047); assay type: functional;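 further: HCT116 colon tumor cells with PTEN knocked out; cells exposed to compound for 60 hours before readout; potency for loss of cell viability measured by luminescence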
# [9] = growth suppression of beta-catenin-knockout colon cells, dose response, cell-based, HCT116, human colon tumor (AID 1045); assay type: functional;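 further: HCT116 colon tumor cells with beta catenin knocked out; cells exposed to compound for 60 hours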
# [10] = molecular target: Voltage-dependent T-type calcium channel subunit alpha-1H (Homo sapiens, UniProt O95180); assay type: functional;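 further: channel activity triggered by adding a high calcium stimulation buffer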
# [11] = molecular target: T4, Short transient receptor potential channel 4 (Mus musculus, UniProt Q9QUQ5); assay: mouse TRPC4 channel activators, dose response, cell-based, HEK293 TRPC4/mu-opioid, Fluo-4 calcium (AID 434937); assay type: functional
# T4 sequence (Q9QUQ5 whole entry): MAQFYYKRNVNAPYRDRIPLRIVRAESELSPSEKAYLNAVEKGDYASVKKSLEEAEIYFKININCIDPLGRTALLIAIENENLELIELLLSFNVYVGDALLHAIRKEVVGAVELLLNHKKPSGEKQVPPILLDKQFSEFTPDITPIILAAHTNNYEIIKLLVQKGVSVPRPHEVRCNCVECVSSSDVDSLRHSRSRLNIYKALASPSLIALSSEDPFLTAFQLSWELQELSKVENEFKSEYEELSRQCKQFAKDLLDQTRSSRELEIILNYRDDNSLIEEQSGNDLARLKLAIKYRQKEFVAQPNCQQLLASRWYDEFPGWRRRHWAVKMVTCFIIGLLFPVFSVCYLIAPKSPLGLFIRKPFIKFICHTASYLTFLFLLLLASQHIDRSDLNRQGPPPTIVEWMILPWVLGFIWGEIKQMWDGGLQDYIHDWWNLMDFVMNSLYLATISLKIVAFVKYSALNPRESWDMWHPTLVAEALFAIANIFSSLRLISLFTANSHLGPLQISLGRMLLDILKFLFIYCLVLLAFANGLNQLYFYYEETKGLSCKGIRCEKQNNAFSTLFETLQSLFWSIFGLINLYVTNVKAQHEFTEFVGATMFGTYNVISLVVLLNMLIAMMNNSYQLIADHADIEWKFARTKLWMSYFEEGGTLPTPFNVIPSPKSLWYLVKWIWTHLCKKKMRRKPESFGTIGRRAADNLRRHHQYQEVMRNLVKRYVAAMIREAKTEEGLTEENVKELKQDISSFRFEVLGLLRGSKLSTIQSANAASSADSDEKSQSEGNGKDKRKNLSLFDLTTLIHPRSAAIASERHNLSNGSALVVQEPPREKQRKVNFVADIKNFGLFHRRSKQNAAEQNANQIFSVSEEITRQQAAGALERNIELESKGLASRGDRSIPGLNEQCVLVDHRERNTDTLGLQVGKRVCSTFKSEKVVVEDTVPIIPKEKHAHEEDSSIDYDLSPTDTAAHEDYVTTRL
# [12] = molecular target: T4, Short transient receptor potential channel 4; assay: mouse TRPC4 channel inhibitors, dose response, cell-based, HEK293 TRPC4/mu-opioid, Fluo-4 calcium (AID 434942); assay type: functional;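 further: potency of inhibitors blocking the TRPC4 calcium response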
# [13] = molecular target: T5, Runt-related transcription factor 1/Core-binding factor subunit beta (Homo sapiens, UniProt Q01196+Q13951); assay: inhibitors of RUNX1 Runt–CBFb-SMMHC binding, primary screen, biochemical, FRET, Cerulean-Runt, Venus-CBFb-SMMHC, uHTS (AID 1434); assay type: protein assay;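 further: partner is the CBFb-SMMHC leukemia fusion protein rather than wild-type CBFb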
# [14] = molecular target: T5, Runt-related transcription factor 1/Core-binding factor subunit beta; assay: inhibitors of RUNX1 Runt–CBFb-SMMHC binding, biochemical, TR-FRET (AID 1438); assay type: protein assay
# [15] = molecular target: T6, Apoptotic protease-activating factor 1 (Homo sapiens, UniProt O14727); assay type: functional
# T6 sequence (O14727 whole entry): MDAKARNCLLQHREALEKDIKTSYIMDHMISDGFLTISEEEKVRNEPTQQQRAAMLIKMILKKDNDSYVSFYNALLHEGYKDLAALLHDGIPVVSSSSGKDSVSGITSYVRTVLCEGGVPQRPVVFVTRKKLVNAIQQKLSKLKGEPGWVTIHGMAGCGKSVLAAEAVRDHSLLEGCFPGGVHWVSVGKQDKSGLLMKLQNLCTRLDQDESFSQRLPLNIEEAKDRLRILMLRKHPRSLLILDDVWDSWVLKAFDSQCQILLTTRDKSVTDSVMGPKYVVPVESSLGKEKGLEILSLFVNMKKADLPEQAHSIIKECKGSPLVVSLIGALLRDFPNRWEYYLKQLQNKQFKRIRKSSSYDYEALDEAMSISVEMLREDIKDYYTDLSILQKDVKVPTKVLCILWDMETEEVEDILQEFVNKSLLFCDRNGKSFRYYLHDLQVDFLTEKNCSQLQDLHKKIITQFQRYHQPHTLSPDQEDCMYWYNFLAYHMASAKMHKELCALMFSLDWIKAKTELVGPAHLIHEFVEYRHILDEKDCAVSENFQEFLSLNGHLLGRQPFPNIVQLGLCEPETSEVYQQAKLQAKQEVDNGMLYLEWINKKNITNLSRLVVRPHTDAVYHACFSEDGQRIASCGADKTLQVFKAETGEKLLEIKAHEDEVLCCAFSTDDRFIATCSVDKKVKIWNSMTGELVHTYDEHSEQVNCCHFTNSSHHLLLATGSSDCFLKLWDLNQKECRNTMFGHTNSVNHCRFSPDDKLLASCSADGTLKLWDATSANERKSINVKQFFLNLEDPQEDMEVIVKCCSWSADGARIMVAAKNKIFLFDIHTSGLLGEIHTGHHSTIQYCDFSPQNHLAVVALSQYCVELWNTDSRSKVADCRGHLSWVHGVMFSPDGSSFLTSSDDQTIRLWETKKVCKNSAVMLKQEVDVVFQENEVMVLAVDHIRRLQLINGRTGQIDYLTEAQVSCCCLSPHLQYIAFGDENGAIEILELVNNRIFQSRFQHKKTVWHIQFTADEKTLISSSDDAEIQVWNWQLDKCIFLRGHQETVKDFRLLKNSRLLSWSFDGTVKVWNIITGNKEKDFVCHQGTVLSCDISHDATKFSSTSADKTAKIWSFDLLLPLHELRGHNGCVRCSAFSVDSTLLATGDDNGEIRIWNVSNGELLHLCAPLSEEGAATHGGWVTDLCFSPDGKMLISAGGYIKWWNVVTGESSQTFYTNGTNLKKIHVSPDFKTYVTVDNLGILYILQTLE
# T5 sequence (Q01196 whole entry, the tested form may be a part): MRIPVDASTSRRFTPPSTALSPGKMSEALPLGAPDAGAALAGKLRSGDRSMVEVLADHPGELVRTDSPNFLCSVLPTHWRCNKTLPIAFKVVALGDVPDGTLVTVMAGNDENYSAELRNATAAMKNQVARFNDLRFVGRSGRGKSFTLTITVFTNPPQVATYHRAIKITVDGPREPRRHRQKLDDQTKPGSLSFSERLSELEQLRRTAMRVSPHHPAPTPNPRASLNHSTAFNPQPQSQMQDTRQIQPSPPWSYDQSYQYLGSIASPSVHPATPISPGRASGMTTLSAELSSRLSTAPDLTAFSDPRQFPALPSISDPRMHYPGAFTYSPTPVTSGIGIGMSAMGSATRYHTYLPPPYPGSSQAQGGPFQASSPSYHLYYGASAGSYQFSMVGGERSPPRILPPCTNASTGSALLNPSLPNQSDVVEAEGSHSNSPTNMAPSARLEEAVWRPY
# T5 sequence (Q13951 whole entry, the tested form may be a part): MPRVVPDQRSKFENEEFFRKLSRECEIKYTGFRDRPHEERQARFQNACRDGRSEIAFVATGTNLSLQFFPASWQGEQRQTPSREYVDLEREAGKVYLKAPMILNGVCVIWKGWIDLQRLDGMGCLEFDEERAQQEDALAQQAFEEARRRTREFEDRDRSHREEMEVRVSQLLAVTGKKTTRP
# Chain of Voltage-dependent T-type calcium channel subunit alpha-1H (O95180 whole entry): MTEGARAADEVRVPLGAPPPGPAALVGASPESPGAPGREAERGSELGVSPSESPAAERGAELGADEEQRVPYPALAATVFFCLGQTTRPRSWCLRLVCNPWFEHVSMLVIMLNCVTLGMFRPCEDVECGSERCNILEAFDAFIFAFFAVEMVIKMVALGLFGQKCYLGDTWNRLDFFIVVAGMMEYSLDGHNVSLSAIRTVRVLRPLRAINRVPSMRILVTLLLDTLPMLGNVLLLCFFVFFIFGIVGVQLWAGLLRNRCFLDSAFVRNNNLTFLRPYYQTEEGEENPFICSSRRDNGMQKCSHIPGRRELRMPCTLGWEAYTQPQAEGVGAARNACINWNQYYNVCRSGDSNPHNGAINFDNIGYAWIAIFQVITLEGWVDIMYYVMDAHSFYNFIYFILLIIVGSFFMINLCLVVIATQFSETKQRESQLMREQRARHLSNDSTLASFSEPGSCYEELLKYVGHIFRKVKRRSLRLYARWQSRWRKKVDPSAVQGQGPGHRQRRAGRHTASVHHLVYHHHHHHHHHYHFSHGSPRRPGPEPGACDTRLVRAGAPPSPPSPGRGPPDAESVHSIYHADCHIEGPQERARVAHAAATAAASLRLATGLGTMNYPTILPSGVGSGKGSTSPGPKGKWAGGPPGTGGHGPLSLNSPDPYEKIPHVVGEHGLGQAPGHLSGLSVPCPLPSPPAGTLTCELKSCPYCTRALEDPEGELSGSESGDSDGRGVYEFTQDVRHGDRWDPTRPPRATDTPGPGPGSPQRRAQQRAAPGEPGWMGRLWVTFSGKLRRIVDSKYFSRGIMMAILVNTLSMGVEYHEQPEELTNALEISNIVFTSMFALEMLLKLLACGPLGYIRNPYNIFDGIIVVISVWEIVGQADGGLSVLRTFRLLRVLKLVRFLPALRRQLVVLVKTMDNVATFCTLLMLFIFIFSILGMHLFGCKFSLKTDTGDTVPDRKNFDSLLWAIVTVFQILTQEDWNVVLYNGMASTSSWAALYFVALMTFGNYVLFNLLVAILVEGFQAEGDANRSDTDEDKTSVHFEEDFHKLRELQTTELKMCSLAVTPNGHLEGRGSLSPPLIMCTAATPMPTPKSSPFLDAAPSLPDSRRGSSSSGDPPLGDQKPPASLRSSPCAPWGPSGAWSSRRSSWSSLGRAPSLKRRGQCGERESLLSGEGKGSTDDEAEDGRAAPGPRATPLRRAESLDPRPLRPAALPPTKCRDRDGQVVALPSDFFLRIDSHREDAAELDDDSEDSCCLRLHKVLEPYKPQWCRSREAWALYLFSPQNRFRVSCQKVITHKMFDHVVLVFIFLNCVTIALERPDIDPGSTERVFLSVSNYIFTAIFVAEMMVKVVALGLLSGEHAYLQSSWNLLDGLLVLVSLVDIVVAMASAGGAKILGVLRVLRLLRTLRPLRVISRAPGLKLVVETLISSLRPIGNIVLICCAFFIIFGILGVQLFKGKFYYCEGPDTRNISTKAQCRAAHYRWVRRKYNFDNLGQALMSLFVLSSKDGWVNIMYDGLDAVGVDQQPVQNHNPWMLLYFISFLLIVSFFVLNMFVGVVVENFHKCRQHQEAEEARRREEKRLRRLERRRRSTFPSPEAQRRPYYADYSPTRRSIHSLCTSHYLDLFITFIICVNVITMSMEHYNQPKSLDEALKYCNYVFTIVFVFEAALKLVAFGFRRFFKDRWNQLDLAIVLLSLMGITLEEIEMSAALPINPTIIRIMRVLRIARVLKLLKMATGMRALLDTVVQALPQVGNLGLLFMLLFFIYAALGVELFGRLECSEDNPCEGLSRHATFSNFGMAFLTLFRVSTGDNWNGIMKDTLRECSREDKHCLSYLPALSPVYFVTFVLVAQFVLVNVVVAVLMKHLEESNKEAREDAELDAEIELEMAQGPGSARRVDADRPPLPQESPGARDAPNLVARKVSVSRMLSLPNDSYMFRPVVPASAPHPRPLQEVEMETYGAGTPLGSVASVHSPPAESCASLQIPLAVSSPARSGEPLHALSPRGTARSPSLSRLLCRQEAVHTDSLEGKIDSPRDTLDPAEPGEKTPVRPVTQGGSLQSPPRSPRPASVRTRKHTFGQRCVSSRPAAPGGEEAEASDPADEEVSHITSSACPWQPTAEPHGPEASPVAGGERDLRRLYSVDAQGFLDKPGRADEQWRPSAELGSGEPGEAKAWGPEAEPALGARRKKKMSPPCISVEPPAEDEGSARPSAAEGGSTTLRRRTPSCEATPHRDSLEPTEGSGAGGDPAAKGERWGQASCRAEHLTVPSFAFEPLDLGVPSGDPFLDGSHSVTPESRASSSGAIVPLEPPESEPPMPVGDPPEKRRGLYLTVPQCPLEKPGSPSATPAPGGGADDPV
smiles,measurement,setting,value
CC(C)(C)c1ccc(-c2csc(NNC3=NCCCCC3)n2)cc1,EC50,[1],38.1 µM (inactive)
same,EC50,[2],47.4 µM (inactive)
same,AC50,[3],22.3 µM (active)
C=CCn1nc([N+](=O)[O-])nc1Sc1cccc2cccnc12,EC50,[1],> 80 µM (inactive)
same,EC50,[2],> 80 µM (inactive)
same,AC50,[4],1.24 µM (active)
same,AC50,[5],10.7 µM (active)
same,AC50,[6],30.3 µM (active)
same,AC50,[7],7.05 µM (active)
O=C(CN1CCN(c2ncc(C(F)(F)F)cc2Cl)CC1)N1CCN(c2ncc(C(F)(F)F)cc2Cl)CC1,EC50,[8],48.4 µM (active)
same,EC50,[9],49.1 µM (active)
same,EC50,[10],8.68 µM (active)
same,EC50,[11],3.35 µM (active)
Clc1ccc(COn2c(-c3ccc(Cl)cc3Cl)nc3ncccc32)cc1,EC50,[12],1.33 µM (active)
same,EC50,[11],4.22 µM (active)
COCCCNC(=O)c1c(NC(=O)c2ccco2)n(Cc2ccccc2)c2nc3ccccc3nc12,IC50,[13],0.34 µM (active)
same,IC50,[14],16 µM (active)
same,IC50,[15],> 100 µM (inactive)
